This is an account of results in US4031198A, “Technetium-labeled complexes, production and use thereof” (priority 1974, dated 1977).

A short description of series [1]: Partition coefficient of Tc complexes, water/n-octyl alcohol, by radioactivity. It counts as physicochemical. Conditions: water/n-octanol. An excerpt:
These partition coefficient studies involve plotting pH vs. The natural logarithm of the ratio of the activity in water to the activity in normal octyl alcohol, hereinafter referred to as ln(aw /ao). In the pH range of 5 to 8, the complex should not be so lipophilic as to have an ln(aw /ao) of less than -2, particularly at the higher pH levels. On the other hand, the hydrophilicity must also be kept within limits, as the following table illustrates:
Acid, salt, hydroxyl, amino or other polar groups present on the complexing agent molecule can provide a water solubilizing or hydrophilic effect which is reflected in higher ln aw /ao values, but due regard must be accorded to the variety of fluids, organs and tissues in mammals, each of which can have a distinctively acidic or basic environment, ranging from, for example, the low pH of the stomach to the relatively high pH of the intestines. The blood is on the mildly alkaline side at pH = 7.4. Thus, partition coefficient data on the Tc-complexes of this invention are preferably obtained throughout the pH range of 5 to 8. The use of partition coefficient data in pharmacology is well-established; see Andrejus Korolkvas, Essentials of Molecular Pharmacology, Wiley (interscience), N.Y., N.Y., 1970. […] Natural logarithms of partition coefficients are tabulated in several of the Examples which follow.
Partition coefficients for the Tc-DHT complex of this Example were determined with a water/n-octyl alcohol system over the pH range of 5 to 8 using radioactive measurements to determine the amount of Tc-99m in each phase. The expression aw /ao is the ratio of the activity in water to the activity in n-octyl alcohol. For comparison, partition coefficients over the same pH range were determined for sodium 99m pertechnetate and cysteine (HS-CH2 CH(NH2)COOH).
The aw /ao ratios for the 99mTc-4-mercaptobutanol complex were determined as in Example 1, except that two independently determined ln(aw /ao) vs. pH plots were averaged.
The aw /ao ratios for the Tc 99m complex of this Example were determined as in Example 1. The results (ln data accurate to ± 0.5) were as follows:
A series of Tc-99m complexes were made by reducing NaTcO4 and reacting the reduced Tc-99m species with the following aliphatic mercapto alcohols:
Partition coefficients were determined as in Examples 1, 3, and 5 in Tables II, III, and VI.

The nature of series [2]: In vivo study of liver or gall-bladder specificity.

As to `OCCS` [2-mercapto-ethanol], the “Ln of partition coefficient, ln(aw /ao)” value in series [1] (pH 5) is recorded as -0.9; in series [1] (pH 6) it was -0.8; in series [1] (pH 7), -0.7; in series [1] (pH 8), -0.6.

As to `OCCCS` [3-mercapto propanol], the “Ln of partition coefficient, ln(aw /ao)” value is -0.5 in series [1] (pH 5), -0.4 in series [1] (pH 6), -0.3 in series [1] (pH 7) and -0.2 in series [1] (pH 8).

On to `CC(C)(O)CCS` [4-mercapto-2-methyl-2-butanol], for which the logD – broadly, lipophilicity at a set pH, counting ionised and neutral species – stood at 1 in series [1] (pH 5), 1.1 in series [1] (pH 6), 1.2 in series [1] (pH 7) and 1.3 in series [1] (pH 8).

As to `OCCCCCS` [5-mercapto pentanol], the logD in series [1] (pH 5) is -0.2; in series [1] (pH 6), -0.1; in series [1] (pH 7) it was -0.1; in series [1] (pH 8) it was 0.

For the compound `[Na+].[O]=[99Tc](=[O])(=[O])[O-]` [Na99mTcO4, sodium 99m pertechnetate, reference compound], the “liver or gall-bladder specificity” value in series [2] is “insufficient liver or gall-bladder specificity”. Moreover, the “Ln of partition coefficient, ln(aw /ao)” value is reported as “+3.2” in series [1] (pH 5), “+3.3” in series [1] (pH 6), “+3.5” in series [1] (pH 7) and “+3.6” in series [1] (pH 8).
